Tested on: lanceolatum melanopsin WT
Assay: GsX GloSensor assay with Gsα/q11
Format: cell-based, Branchiostoma lanceolatum
Conditions: 16.7 μM AA92593, COS-1 cells
From the text: Non-mammalian-type melanopsins were successfully converted into AA92593-susceptible types by introducing Phe-94^2.61/Ser-188^ECL2/Ser-269^6.52 or Phe-207^5.42 (Fig. 6). We attempted to extend the functional conversion targets to invertebrate melanopsin (see Fig. S2). […] We assessed the susceptibility of belcheri and lanceolatum melanopsins to AA92593 using the GsX GloSensor assay with Gsα/q11. In the absence of AA92593, the belcheri melanopsin produced smaller light-dependent cAMP responses than the other melanopsins assessed in this study (Fig. 7A), whereas the lanceolatum melanopsin produced robust cAMP responses upon light illumination (Fig. 7B). […] On the other hand, responses by the lanceolatum melanopsin were insensitive to the antagonist (Fig. 7B), similar to non-mammalian-type melanopsins (Fig. 6, A and D). […]
For GloSensor assay, opsins, GloSensor assay sensor (coded by pGlo-22F), and NanoBiT-tagged G proteins were transiently expressed in COS-1 cells (kindly provided from Dr David Farrens, Oregon Health and Science University) using PEI as described previously ([24], [52]). […] For GFP-fluorescence microscopy, a 35-mm cell culture dish (IWAKI) was transfected with 2 μg melanopsin-GFP plasmid and 8 μg PEI in 400 μl Opti-mem and 1.2 ml D-MEM. […]

In the case of `COc1ccc(S(=O)(=O)N2CCCCC2)cc1C` [AA92593], the “sensitivity of light-induced responses to the antagonist” value is reported as “insensitive”.
